Reference: publication PMC10056595, “Odorant-Binding Proteins and Chemosensory Proteins in Spodoptera frugiperda: From Genome-Wide Identification and Developmental Stage-Related Expression Analysis to the Perception of Host Plant Odors, Sex Pheromones, and Insecticides” (International Journal of Molecular Sciences, 2023)
Read-outs that look alike come from different tables or passages of the source.

What was measured:
[1] = biological target: T1, SfruOBP31 (Spodoptera frugiperda, UniProt A0A2H1W9W7); experiment: fluorescence competitive binding assay with the probe 1-NPN; settings: for Ki: competing ligand 2–20 µM, 2.0 µM 1-NPN, 2.0 µM protein, Ki < 20 µM recognized as binding; for binding of SfruOBP31 to the ligand (in words): competitive binding with 1-NPN, threshold Ki < 20 µM recognized as binding
T1 sequence (A0A2H1W9W7 entry or part of it): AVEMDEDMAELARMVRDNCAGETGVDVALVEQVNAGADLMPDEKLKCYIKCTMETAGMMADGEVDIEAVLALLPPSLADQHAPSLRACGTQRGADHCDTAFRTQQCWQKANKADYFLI
Method: To investigate the ligand binding ability of SfruOBP31, we used a fluorescence competitive binding assay using the fluorescent probe N-phenyl-1-naphthylamine (1-NPN). Binding experiments were performed on a microplate reader using a Greiner 96 Black Flat Bottom. Among the ligands, we tested five host volatiles from the host plant Zea mays: decanal (97% purity, Shanghai Acmec Biochemical Co., Ltd., Shanghai, China), linalool (98% purity, Shanghai Acmec Biochemical Co., Ltd.), leaf alcohol (98% purity, Shanghai Acmec Biochemical Co., Ltd.), 1-nonanol (98% purity, Shanghai Acmec Biochemical Co., Ltd.), and cis-3-hexenyl acetate (98% purity, Shanghai Acmec Biochemical Co., Ltd.); four pheromones: (Z)-9-tetradecenyl acetate (93% purity, Shenzhen Regent Biochemical Technology Co., Ltd., Shenzhen, China), (Z)-11-hexadecenyl acetate (98% purity, Shanghai Bidd Medical Technology Co., Ltd., Shanghai, China), (Z)-7-dodecenyl acetate (90% purity, Shanghai Bidd Medical Technology Co., Ltd.), and (Z)-9-dodecenyl acetate (90% purity, Shanghai Bidd Medical Technology Co., Ltd.); and five pesticides: emamectin benzoate (90% purity, Energy Chemical), lufenuron (97.4% purity, Shanghai Yuanye Biotechnology Co., Ltd., Shanghai, China), chlorfenapyr (98% purity, Shanghai Yuanye Biotechnology Co., Ltd.), chlorantraniliprole (95% purity, Shanghai Yuanye Biotechnology Co., Ltd.), and lambda-cyhalothrin (96% purity, Guangdong Liwei Chemical Co., Ltd., Maoming, China). All chemicals used for testing and the fluorescent probe 1-NPN were dissolved in GC purify-grade methanol in a 400 µM solution. The 2.0 µM protein solution (in 10 mM HEPES and 100 mM NaCl buffer, pH 7.5) was titrated with 400 µM 1-NPN to a final concentration of 2–20 µM. The binding constant of the protein to 1-NPN was analyzed by assessing the continuous change of fluorescence value. Compounds of 2–20 µM concentration were added to the mixture of 2.0 µM 1-NPN and 2.0 µM protein or 2.0 µM 1-NPN alone to determine the binding rate of the ligands to the protein and the value of the fluorescence. The final fluorescence value was calculated as the fluorescence value after the addition of 1-NPN and protein with the competing ligand minus the fluorescence value after the addition of 1-NPN with the competing ligand only.
(§1) The dissociation constants (K1-NPN) of SfruOBP31 were calculated using Graphpad Prism 8 software. The dissociation constant (Ki) of 1-NPN by competing ligands was calculated with the following formula using IC50 value: Ki = [IC50]/(1 + [1-NPN]/K1-NPN). Here, IC50 is the concentration of competing ligands when the fluorescence intensity reaches half of the initial fluorescence intensity of 1-NPN, and [1-NPN] indicates the concentration of 1-NPN [16]. A threshold of Ki < 20 µM was recognized as binding.

[2] = biological target: T1, SfruOBP31; experiment: 1-NPN fluorescence binding (titration of SfruOBP31 with 1-NPN); settings: binding curve of SfruOBP31 with 1-NPN
Method: To investigate the ligand binding ability of SfruOBP31, we used a fluorescence competitive binding assay using the fluorescent probe N-phenyl-1-naphthylamine (1-NPN). Binding experiments were performed on a microplate reader using a Greiner 96 Black Flat Bottom. […] The binding constant of the protein to 1-NPN was analyzed by assessing the continuous change of fluorescence value. Compounds of 2–20 µM concentration were added to the mixture of 2.0 µM 1-NPN and 2.0 µM protein or 2.0 µM 1-NPN alone to determine the binding rate of the ligands to the protein and the value of the fluorescence. The final fluorescence value was calculated as the fluorescence value after the addition of 1-NPN and protein with the competing ligand minus the fluorescence value after the addition of 1-NPN with the competing ligand only.
as §1, with “A threshold of Ki < 20 µM was recognized as binding.” left out

[3] = Ki = [IC50]/(1 + [1-NPN]/K1-NPN), read-out: Ki
[4] = Ki = [IC50]/(1 + [1-NPN]/K1-NPN)

| Ki [1, 3] | Compound | binding of SfruOBP31 to the ligand (in words) [1] | Ki [1, 4] | also measured |
| --- | --- | --- | --- | --- |
| 14.2 µM | CCCCCCCCCO [1-nonanol] | – | – | – |
| – | O=C(NC(=O)c1c(F)cccc1F)Nc1cc(Cl)c(OC(F)(F)C(F)C(F)(F)F)cc1Cl (centres unmarked) [lufenuron, reference compound] | lack of binding | 37.6 µM | – |
| – | CNC(=O)c1cc(Cl)cc(C)c1NC(=O)c1cc(Br)nn1-c1ncccc1Cl [chlorantraniliprole, reference compound] | lack of binding | 22.3 µM | – |
| – | C=CC(C)(O)CCC=C(C)C (centres unmarked) [linalool] | – | 4.04 µM | – |
| – | CCOCn1c(-c2ccc(Cl)cc2)c(C#N)c(Br)c1C(F)(F)F [chlorfenapyr, reference compound] | – | – | Ki ([1]; read-out: Ki (unit inferred)): 8.1 µM |
| 5.4 µM | CCCC/C=C\CCCCCCCCCCOC(C)=O [(Z)-11-hexadecenyl acetate] | selectively binds | – | – |
| 6.38 µM | CC/C=C\CCOC(C)=O [cis-3-hexenyl acetate] | – | – | – |
| 5.02 µM | CCCC/C=C\CCCCCCCCOC(C)=O [(Z)-9-tetradecenyl acetate] | selectively binds | – | – |
| 19.6 µM | CCCCCCCCCC=O [decanal] | – | – | – |
| – | c1ccc(Nc2cccc3ccccc23)cc1 [1-NPN, N-phenyl-1-naphthylamine] | – | – | Bmax (1-NPN, printed in Figure 11A) [2]: 702,842 |
| – | CC1(C)[C@H](C(=O)O[C@H](C#N)c2cccc(Oc3ccccc3)c2)[C@@H]1/C=C(\Cl)C(F)(F)F (racemic) [lambda-cyhalothrin, reference compound] | – | 2.78 µM | – |

| Compound | Ki [1, 3] | binding of SfruOBP31 to the ligand (in words) [1] | Ki [1, 4] | also measured |
| --- | --- | --- | --- | --- |
| emamectin benzoate [reference compound] | 27.6 µM | lack of binding | – | – |
